Test results as given in patent publication US20240116923A1, “USE OF INDOLE, 6- AND 7-AZAINDOLE DERIVATIVES AS INHIBITORS OF FERROPTOSIS REGULATED CELL DEATH” (Seabelife, priority 2021, published 2024).

Test system: Rat dopaminergic neurons
Assay: Protective effect after 6-OHDA injury on rat primary dopaminergic neurons survival (TH staining)
Format: cell-based
Details: p<0.0001
Experimental: As explained in Ding et al., J Neurochem., 2004, (89), administration of 6-Hydroxydopamine (6-OHDA), a neurotoxin, has been widely used to cause the selective degeneration of dopamine (DA) neurons in in vitro and in vivo models. These models are used as Parkinson's disease models, which is characterized by the progressive loss of DA neurons of the substantia nigra.
Rat dopaminergic neurons were cultured as described by Schinelli et al., J Neurochem., 1988, 50(6). The cells were seeded at a density of 40 000 cells/well in 96 well-plates (precoated with poly-D-lysine; Greiner, Ref: 655940, Batch: E20093UL) and were cultured at 37° C. in a humidified air (95%)/CO2 (5%) atmosphere. Half of the medium was changed every 2 days with fresh medium. In these conditions, after 5 days of culture, astrocytes are present in the culture and release growth factor allowing neurons differentiation. In this condition, 2 to 5% of neurons are dopaminergic neurons.
6-OHDA (Sigma, Ref: 162957, Batch MKCK5243) was reconstituted in define culture medium at 40 μM (stock solution). The control medium was prepared in the same conditions. After 7 days of culture, primary mesencephalic neurons were pre-treated for 1 hour with test compounds or reference compound (BDNF, 50 ng/mL) and then intoxicated with 6-OHDA at a final concentration of 20 μM for 2 days incubation in order to induce a neuronal cell death of about 50%+/−5%.
After 2 days of intoxication in presence or absence of test compounds, cells were fixed by a solution of 4% paraformaldehyde (Sigma, ref 6148, Batch: SZBE2390V) for 20 min at room temperature, the control conditions were fixed as well following the same procedure. The cells were then permeabilized and nonspecific sites were blocked with a solution of phosphate buffered saline (PBS; PanBiotech; ref: P04-36500, Batch: 7701020) containing 0.1% of saponin (Sigma; ref: S7900, Batch: BCBL8667V) and 1% FCS for 15 min at room temperature. Cells were incubated with a mouse monoclonal anti-Tyrosine Hydroxylase (TH, 1/10 000, Sigma; ref: T1299, Batch: 014M4835) antibody in a solution of PBS overnight at 4° C. Antibody against TH stained dopaminergic neurons. […] Nuclei of cells were labelled by a fluorescent marker (Hoechst, Sigma; ref: B1155, Batch: 046M4048V) in the same solution. For each condition, 20 pictures per well were taken using InCell Analyzer™ 2200 (GE Healthcare) with 20× magnification. Images of each culture well were taken in same condition. Analysis of cell bodies of TH positive neurons was performed using Developer software (GE healthcare). A total of 6 data per experimental condition were provided.

NCCc1cc(O)c(O)cc1O [Compound 6-OHDA, 6-hydroxydopamine, reference compound]
cellular death of dopaminergic neurons (6-OHDA 20 μM alone, 2 days): 48%

B1: BDNF: Brain Derived Neurotrophic Factor, reference compound at 50 ng/mL (protein, UniProt P23560 19-247, looked up)
Neurotrophic factor BDNF …: APMKEANIRGQGGLAYPGVRTHGTLESVNGPKAGSRGLTSLADTFEHVIEELLDEDQKVRPNEENNKDADLYTSRVMLSSQVPLEPPLLFLLEEYKNYLDAANMSMRVRRHSDPARRGELSVCDSISEWVTAADKKTAVDMSGGTVTVLEKVPVSKGQLKQYFYETKCNPMGYTKEGCRGIDKRHWNSQCRTTQSYVRALTMDSKKRIGWRFIRIDTSCVCTLTIKRGR
cellular death of dopaminergic neurons after 6-OHDA injury (50 ng/mL, 1 h pre-treatment, 6-OHDA 20 μM 2 days (6-OHDA alone 48%)): 15%
